Calls of active or inactive are those of the source. No cut-off for these calls is given here.
System: Human immunodeficiency virus
Assay: Antiviral activity against HIV at 100 uM
Format: functional, organism-based

Row | SMILES | Activity
1 | Nc1ccn([C@H]2C[C@H](O)[C@@H](CO)O2)c(=O)n1 | inactive
2 | C[C@H]1[C@@H](O)[C@H](n2cnc(C(N)=O)c2N)O[C@@H]1CO | inactive
3 | C[C@H]1C[C@H](n2cnc(C(N)=O)n2)O[C@@H]1COC(=O)c1ccccc1 | inactive
4 | C[C@H]1C[C@H](n2cnc3c(N)ncnc32)O[C@@H]1CO | inactive
5 | C[C@H]1C[C@H](n2cnc(C(N)=O)n2)O[C@@H]1CO | inactive
6 | C[C@H]1C[C@H](n2cnc3c(=O)[nH]c(N)nc32)O[C@@H]1CO | inactive
7 | C[C@H]1C[C@H](n2ccc(=O)[nH]c2=O)O[C@@H]1CO | inactive
8 | Cc1cn([C@H]2C[C@H](C)[C@@H](CO)O2)c(=O)[nH]c1=O | inactive
9 | C[C@H]1[C@@H](O)[C@H](n2cnc(C(N)=O)n2)O[C@@H]1CO | inactive
10 | C[C@H]1[C@@H](O)[C@H](n2cnc(C(N)=O)n2)O[C@@H]1COC(=O)c1ccccc1 | inactive

Source: ChEMBL document CHEMBL1155786, “Synthesis of 3'-deoxy-3'-C-methyl nucleoside derivatives” (Bioorg Med Chem, 2008)
